What was measured:
PPARγ = target: T1, PPARγ (Homo sapiens, UniProt P37231); test: SPR on immobilized PPARγ; format: binding
T1 sequence (P37231 195-477 isoform P37231-2 limits assumed): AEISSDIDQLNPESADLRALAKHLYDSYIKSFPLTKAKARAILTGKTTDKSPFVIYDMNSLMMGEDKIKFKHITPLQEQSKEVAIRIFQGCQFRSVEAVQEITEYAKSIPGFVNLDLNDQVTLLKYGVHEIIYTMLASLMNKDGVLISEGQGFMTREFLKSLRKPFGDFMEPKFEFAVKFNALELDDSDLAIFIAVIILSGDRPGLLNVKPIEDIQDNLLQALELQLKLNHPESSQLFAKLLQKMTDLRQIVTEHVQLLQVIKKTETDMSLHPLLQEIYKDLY
Protocol: ; SPR analysis was also performed using the immobilized PPARγ LBD to evaluate if this protein portion was involved in the interaction with 1; […]. Conversely, no affinity of the diterpene towards Hsp60 was observed (Fig. 2c).
To assess the potential of 1 to act as a PPARγ modulator, we investigated the structural and functional aspects of its interaction with this nuclear receptor. To define the structural features required by 1 for an efficient interaction with PPARγ, as a first step, we performed SPR analyses using some diterpenes displaying structural relationship with 1 (compounds 2–9, Fig. 1). […]. SPR analyses were carried out on a BIACORE 3000 instrument (GE-Healthcare). PPARα, PPARγ, PPARδ and HSP60 surfaces were prepared on research−grade CM5 sensor chips (GE Healthcare). Proteins (100 μg/ml in 10 mM CH3COONa, pH 5.0) were immobilized using a standard amine−coupling protocol, to obtain densities of 3–5 kRU. Testing compounds were dissolved in 100% DMSO to obtain 4 mM solutions, and then diluted in PBS containing variable amounts of DMSO, achieving a final DMSO concentration of 0.1%. […]. SPR experiments and data elaboration were carried out as reported elsewhere.

Hsp60 [1] = target: T2, Hsp60 (Homo sapiens, UniProt P10809); test: SPR on immobilized Hsp60; format: binding
T2 construct: purchased Tebu-Bio
Protocol: Conversely, no affinity of the diterpene towards Hsp60 was observed (Fig. 2c).
(§1) SPR analyses were carried out on a BIACORE 3000 instrument (GE-Healthcare). PPARα, PPARγ, PPARδ and HSP60 surfaces were prepared on research−grade CM5 sensor chips (GE Healthcare). Proteins (100 μg/ml in 10 mM CH3COONa, pH 5.0) were immobilized using a standard amine−coupling protocol, to obtain densities of 3–5 kRU. Testing compounds were dissolved in 100% DMSO to obtain 4 mM solutions, and then diluted in PBS containing variable amounts of DMSO, achieving a final DMSO concentration of 0.1%. For each molecule a five−point concentration series (25 nM, 65 nM, 150 nM, 400 nM, 1 μM) was set up. SPR experiments and data elaboration were carried out as reported elsewhere.

PPARδ = target: T3, PPARδ (Homo sapiens, UniProt Q03181); test: SPR on immobilized PPARδ; format: binding
T3 construct: purchased Tebu-Bio
T3 sequence (Q03181 1-441): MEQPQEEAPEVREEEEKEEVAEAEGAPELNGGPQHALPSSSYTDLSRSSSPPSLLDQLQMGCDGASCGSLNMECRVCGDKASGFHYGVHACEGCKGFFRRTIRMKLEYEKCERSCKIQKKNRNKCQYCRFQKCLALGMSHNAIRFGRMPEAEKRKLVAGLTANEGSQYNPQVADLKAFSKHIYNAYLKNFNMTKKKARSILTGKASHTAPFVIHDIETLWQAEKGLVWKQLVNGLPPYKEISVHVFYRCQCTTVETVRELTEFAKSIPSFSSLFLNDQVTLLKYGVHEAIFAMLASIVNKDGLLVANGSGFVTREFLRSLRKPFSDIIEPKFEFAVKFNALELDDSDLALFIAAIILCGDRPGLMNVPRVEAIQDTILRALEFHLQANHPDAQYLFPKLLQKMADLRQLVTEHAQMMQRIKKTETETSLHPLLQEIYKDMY
Protocol: In order to evaluate if 1 acts as a selective ligand of PPARγ, SPR analyses were also carried out on immobilized PPARα and PPARδ, two proteins structurally and functionally related to PPARγ[23][24].
as §1

HT29 cells = test: Western blot of proliferation/apoptosis markers in HT29 cells; format: cell-based
Excerpt: In addition, the expression of two components of the apoptotic pathway, such as caspase 3 and its substrate Poly (ADP-ribose) polymerase (PARP), was affected resulting in a reduction of the pro-caspase 3 precursor and an increase of the PARP cleaved form. Pre-treatment with GW9662 counteracted both the effects (Fig. 7b,c).
The graphs in (a–c) represent the mean ± SD of the protein/β-actin ratio from two independent experiments for p21^waf1/cip1, Caspase-3 precursor and cleaved PARP proteins, respectively. The graph in (d) represents the mean ± SD of pAKT/AKT ratio from two independent experiments.
Treated and untreated cells were lysed in Ripa buffer (150 mM NaCl, 50 mM Tris-HCl, pH 7.6, 10 mM EDTA, 1% NP-40) containing also a protease inhibitors cocktail and then centrifugated at 17,000 RCF for 10 min, at 4 °C. Supernatant containing total proteins was quantified and 80 μg of each sample were separated on 12% SDS-PAGE. Western blotting assays were carried out] Protein extracts from treated and untreated cells were obtained, quantified and analyzed by Western blot as reported.

Hsp60 [2] = target: T2, Hsp60; test: MS-based peptide mapping of Hsp60 incubated with 1; conditions: trypsin digestion, LC-MS/MS
Protocol: PPARγ-LBD and Hsp60 were incubated with a 2:1 molar excess of 1 under stirring for 15 min in PBS at 37 °C. Eluted proteins were loaded on a mono-dimensional 12% SDS-PAGE, stained with Brilliant Blue G-Colloidal, reduced, and digested by trypsin. The resulting fragments were extracted and analyzed by LC-MS/MS using the same instrument and protocol described before. Peptide identification was performed by MS and MS/MS data using Mascot (Matrix Science) to interrogate the Swiss Prot non-redundant protein database.

[3] = exposure for 6 h, compound alone

T2 sequence (P10809 27-573): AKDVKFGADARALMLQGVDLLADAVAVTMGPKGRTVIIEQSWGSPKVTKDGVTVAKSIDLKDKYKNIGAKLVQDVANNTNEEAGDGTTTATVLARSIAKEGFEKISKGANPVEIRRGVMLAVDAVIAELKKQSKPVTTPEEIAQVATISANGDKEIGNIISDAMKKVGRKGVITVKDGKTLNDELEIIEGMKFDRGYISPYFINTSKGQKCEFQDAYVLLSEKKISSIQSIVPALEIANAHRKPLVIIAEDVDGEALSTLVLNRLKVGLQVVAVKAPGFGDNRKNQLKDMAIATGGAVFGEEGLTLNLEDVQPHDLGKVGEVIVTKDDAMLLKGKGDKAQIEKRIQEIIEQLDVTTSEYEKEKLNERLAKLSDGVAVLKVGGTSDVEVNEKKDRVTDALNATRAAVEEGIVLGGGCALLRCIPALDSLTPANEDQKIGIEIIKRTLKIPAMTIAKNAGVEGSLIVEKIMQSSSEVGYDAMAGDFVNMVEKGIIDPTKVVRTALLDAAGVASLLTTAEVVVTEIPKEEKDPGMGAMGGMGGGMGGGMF

C=C1C(=O)C23CCC4C(C(=O)OC)CC(O)CC4(C)C2CCC1C3 (stereo not shown) [Compound 1, 15-ketoatractyligenin methyl ester] was tested, and the “dissociation of 1/PPARγ complex” value (PPARγ; SPR, compared with 1/PPARα complex) was “required longer times and was incomplete”, the Kd (PPARγ; SPR, immobilized PPARγ) was 0.0258 ± 0.0055 µM and the “interaction with PPARγ pre-incubated with 1” value (PPARγ; protein immobilized after 2 h incubation with 5-fold molar excess of 1) was “did not interact”. For the same compound, the “affinity towards Hsp60” value (Hsp60 [1]) was “no affinity”, the “binding to PPARδ” value (PPARδ) was “no significant binding” and the “p21^waf1/cip1 levels” value (HT29 cells; [3]) was “sharply increased”. For the same compound, the p-AKT levels (HT29 cells; [3]) was “robust reduction”, the PARP cleaved form (HT29 cells; exposure for 48 h) was “increase” and the “pro-caspase 3 precursor expression” value (HT29 cells; exposure for 48 h) was “reduction”. For the same compound, the “covalent modification of Hsp60” value (Hsp60 [2]) was “no peptide covalently modified”.
